Key:
LZK = target: T1, LZK (Homo sapiens, UniProt O43283); assay: LZK biochemical assay (TR-FRET, MKK7 phosphorylation); conditions: LZK catalytic domain, MKK7 substrate, 15 μM ATP
T1 construct: 10 nM LZK, catalytic domain, Carna Biosiences in assay buffer; purchased Carna Biosciences ('Carna Biosiences' [sic])
T1 sequence (O43283 168-409 limits assumed): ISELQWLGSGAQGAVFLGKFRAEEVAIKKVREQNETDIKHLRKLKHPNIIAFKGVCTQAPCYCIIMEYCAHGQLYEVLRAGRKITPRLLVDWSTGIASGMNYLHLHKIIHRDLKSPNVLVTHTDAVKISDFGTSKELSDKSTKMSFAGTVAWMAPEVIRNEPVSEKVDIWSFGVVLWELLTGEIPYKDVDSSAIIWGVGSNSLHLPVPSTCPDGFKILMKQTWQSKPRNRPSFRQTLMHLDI
Description: (§1) LZK assay is a biochemical assay format designed to screen for inhibitors of LZK. Enzymatic activity of LZK is measured by monitoring phosphorylation of the physiological substrate MKK7 (MAP2K7, Dual specificity mitogen-activated protein kinase kinase 7). Phosphorylation is detected by a TR-FRET system whereby His-tagged MKK7 is labeled by a XL665-labeled anti-His antibody (FRET acceptor, emission 665 nm). LZK phosphorylates MKK7 at T275/S277 which is detected by an Eu-labeled anti-phospho-MKK7 (T275/S277) antibody (FRET donor, excitation 340 nm). Phosphorylation of MKK7 results in an increased TR-FRET signal (Ratio XL665-channel/Eu-channel) and inhibition of enzymatic activity of LZK decreases the TR-FRET signal.
All indicated concentrations final concentrations.
(§2) Detection buffer: 25 mM Tris/HCl pH 7.5, 100 mM EDTA, 100 mM NaCl, 200 mM KF, 0.01% Tween 20, 1:500 Smart Block.

DLK = target: T2, DLK (Homo sapiens, UniProt Q12852); assay: DLK biochemical assay (TR-FRET, MKK7 phosphorylation); conditions: DLK catalytic domain, MKK7 substrate, 60 μM ATP
T2 construct: 10 nM DLK, catalytic domain, Carna Biosiences; purchased Carna Biosciences ('Carna Biosiences' [sic])
T2 sequence (Q12852 125-366 limits assumed): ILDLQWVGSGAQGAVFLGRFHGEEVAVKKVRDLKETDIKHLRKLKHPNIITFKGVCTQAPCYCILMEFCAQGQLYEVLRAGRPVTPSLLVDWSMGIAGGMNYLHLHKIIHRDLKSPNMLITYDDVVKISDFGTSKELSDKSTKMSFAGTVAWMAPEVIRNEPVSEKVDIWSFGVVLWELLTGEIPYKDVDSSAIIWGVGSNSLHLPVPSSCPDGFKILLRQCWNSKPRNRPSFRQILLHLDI
Description: as §1, with “DLK assay” for “LZK assay”, “of DLK.” for “of LZK.”, “of DLK” for “of LZK”, “nm). DLK” for “nm). LZK”, “at T275/S277,” for “at T275/S277”
All indicated concentrations are final concentrations.
as §2

In the case of `CC[C@H](C)NC(=O)c1cc(-c2cnn(C3CCc4ccccc43)c2)cn2nc(N)nc12` (mixture of isomers) [Example I-13, 2-Amino-N-[(2S)-butan-2-yl]-6-[1-(2,3-dihydro-1H-inden-1-yl)-1H-pyrazol-4-yl][1,2,4]triazolo[1,5-a]pyridine-8-carboxamide], the IC50 (LZK) is reported as 7.7 nM and the IC50 (DLK) is reported as 68 nM.
`CC[C@H](C)NC(=O)c1cc(-c2cnn(C3CCOc4ccccc43)c2)cc2nc(N)nn12` (mixture of isomers) [Example I-16, 2-Amino-N-[(2S)-butan-2-yl]-7-[1-(3,4-dihydro-2H-chromen-4-yl)-1H-pyrazol-4-yl][1,2,4]triazolo[1,5-a]pyridine-5-carboxamide] gave an IC50 (LZK) of 3.3 nM and an IC50 (DLK) of 22 nM.
With `CC[C@H](C)NC(=O)c1cc(-c2cnn(C3CCCc4ncccc43)c2)cc2nc(N)nn12` (mixture of isomers) [Example I-19, 2-Amino-N-[(2S)-butan-2-yl]-7-[1-(5,6,7,8-tetrahydroquinolin-5-yl)-1H-pyrazol-4-yl][1,2,4]triazolo[1,5-a]pyridine-5-carboxamide] the IC50 (LZK) was 3.9 nM and the IC50 (DLK) was 21 nM.
For `CC[C@H](C)NC(=O)c1cc(-c2cnn(C3CCCc4cnccc43)c2)cc2nc(N)nn12` (mixture of isomers) [Example I-20, 2-Amino-N-[(2S)-butan-2-yl]-7-[1-(5,6,7,8-tetrahydroisoquinolin-5-yl)-1H-pyrazol-4-yl][1,2,4]triazolo[1,5-a]pyridine-5-carboxamide], the IC50 (LZK) was 4.4 nM and the IC50 (DLK) was 11 nM.
Work on `CC[C@H](C)NC(=O)c1cc(-c2cnn(C3CCCc4ccncc43)c2)cc2nc(N)nn12` (mixture of isomers) [Example I-21, 2-Amino-N-[(2S)-butan-2-yl]-7-[1-(5,6,7,8-tetrahydroisoquinolin-8-yl)-1H-pyrazol-4-yl][1,2,4]triazolo[1,5-a]pyridine-5-carboxamide] yielded an IC50 (LZK) of 5.1 nM and an IC50 (DLK) of 33 nM.
Compound `CC[C@H](C)NC(=O)c1cc(-c2cnn(C3CCCc4cccnc43)c2)cc2nc(N)nn12` (mixture of isomers) [Example I-22, 2-Amino-N-[(2S)-butan-2-yl]-7-[1-(5,6,7,8-tetrahydroquinolin-8-yl)-1H-pyrazol-4-yl][1,2,4]triazolo[1,5-a]pyridine-5-carboxamide] has an IC50 (LZK) of 13 nM and an IC50 (DLK) of 27 nM.
`CC[C@H](C)NC(=O)c1cc(-c2cnn(C(c3ccccc3)C(C)C)c2)cc2nc(N)nn12` (mixture of isomers) [Example I-24, 2-Amino-N-[(2S)-butan-2-yl]-7-{1-[2-methyl-1-phenylpropyl]-1H-pyrazol-4-yl}[1,2,4]triazolo[1,5-a]pyridine-5-carboxamide] was tested, and the IC50 (LZK) was 23 nM and the IC50 (DLK) was 2.7 nM.
`CC[C@H](C)NC(=O)c1cc(-c2cnn(C(c3ccccc3)C3CCC3)c2)cn2nc(N)nc12` (mixture of isomers) [Example I-27, 2-Amino-N-[(2S)-butan-2-yl]-6-{1-[cyclobutyl(phenyl)methyl]-1H-pyrazol-4-yl}[1,2,4]triazolo[1,5-a]pyridine-8-carboxamide] showed an IC50 (LZK) of 390 nM and an IC50 (DLK) of 7.7 nM.
For `CC[C@H](C)NC(=O)c1cc(-c2cnn(C(c3ccccc3)C3(C)CC3)c2)cn2nc(N)nc12` (mixture of isomers) [Example I-28, 2-Amino-N-[(2S)-butan-2-yl]-6-{1[(1-methylcyclopropyl)(phenyl)methyl]-1H-pyrazol-4-yl}[1,2,4]triazolo[1,5-a]pyridine-8-carboxamide], the IC50 (LZK) was 380 nM and the IC50 (DLK) was 9.2 nM.
Compound `CC[C@H](C)NC(=O)c1cc(-c2cnn(C(c3ccccc3)C3CC(F)(F)C3)c2)cn2nc(N)nc12` (mixture of isomers) [Example I-31, 2-Amino-N-[(2S)-butan-2-yl]-6-{1-[(3,3-difluorocyclobutyl)(phenyl)methyl]-1H-pyrazol-4-yl}[1,2,4]triazolo[1,5-a]pyridine-8-carboxamide] has an IC50 (LZK) of 150 nM and an IC50 (DLK) of 3.8 nM.
`CC[C@H](C)NC(=O)c1cc(-c2cnn(C(c3ccccc3)C(C)(C)C)c2)cn2nc(N)nc12` (mixture of isomers) [Example I-34, 2-Amino-N-[(2S)-butan-2-yl]-6-{1-[2,2-dimethyl-1-phenylpropyl]-1H-pyrazol-4-yl}[1,2,4]triazolo[1,5-a]pyridine-8-carboxamide] showed an IC50 (LZK) of 520 nM and an IC50 (DLK) of 9.5 nM.
`CC[C@H](C)NC(=O)c1cc(-c2cnn(C(CC(F)(F)F)c3ccccc3)c2)cn2nc(N)nc12` (mixture of isomers) [Example I-37, 2-Amino-N-[(2S)-butan-2-yl]-6-{1-[3,3,3-trifluoro-1-phenylpropyl]-1H-pyrazol-4-yl}[1,2,4]triazolo[1,5-a]pyridine-8-carboxamide] showed an IC50 (LZK) of 240 nM and an IC50 (DLK) of 3.6 nM.
Work on `CC[C@H](C)NC(=O)c1cc(-c2cnn(C(COC)c3ccccc3)c2)cn2nc(N)nc12` (mixture of isomers) [Example I-40, 2-Amino-N-[(2S)-butan-2-yl]-6-[1-(2-methoxy-1-phenylethyl)-1H-pyrazol-4-yl][1,2,4]triazolo[1,5-a]pyridine-8-carboxamide] yielded an IC50 (LZK) of 67 nM and an IC50 (DLK) of 4.5 nM.
`CC[C@H](C)NC(=O)c1cc(-c2cnn(C(c3ccc(F)cc3)C(C)C)c2)cn2nc(N)nc12` (mixture of isomers) [Example I-43, 2-Amino-N-[(2S)-butan-2-yl]-6-{1-[1-(4-fluorophenyl)-2-methylpropyl]-1H-pyrazol-4-yl}[1,2,4]triazolo[1,5-a]pyridine-8-carboxamide] showed an IC50 (LZK) of 66 nM and an IC50 (DLK) of 2.9 nM.
For `CCC(c1ccc(N2CCOCC2)cc1)n1cc(-c2cc(C(=O)N[C@@H](C)CC)c3nc(N)nn3c2)cn1` (mixture of isomers) [Example I-47, 2-Amino-N-[(2S)-butan-2-yl]-6-(1-{1-[4-(morpholin-4-yl)phenyl]propyl}-1H-pyrazol-4-yl)[1,2,4]triazolo[1,5-a]pyridine-8-carboxamide], the IC50 (LZK) was 40 nM and the IC50 (DLK) was 3.8 nM.
Compound `CC[C@H](C)NC(=O)c1cc(-c2cnn(C(c3ccccc3)C3CCOCC3)c2)cc2nc(N)nn12` (mixture of isomers) [Example I-51, 2-Amino-N-[(2S)-butan-2-yl]-7-{1-[phenyl(tetrahydro-2H-pyran-4-yl)methyl]-1H-pyrazol-4-yl}[1,2,4]triazolo[1,5-a]pyridine-5-carboxamide] has an IC50 (LZK) of 8.7 nM and an IC50 (DLK) of 1.8 nM.
`CCC(c1ccc(F)cn1)n1cc(-c2cc(C(=O)N[C@@H](C)CC)c3nc(N)nn3c2)cn1` (mixture of isomers) [Example I-55, 2-Amino-N-[(2S)-butan-2-yl]-6-{1-[1-(5-fluoropyridin-2-yl)propyl]-1H-pyrazol-4-yl}[1,2,4]triazolo[1,5-a]pyridine-8-carboxamide] gave an IC50 (LZK) of 49 nM and an IC50 (DLK) of 6.7 nM.
`CCC(c1cncc(Cl)c1)n1cc(-c2cc(C(=O)N[C@@H](C)CC)c3nc(N)nn3c2)cn1` (mixture of isomers) [Example I-58, 2-Amino-N-[(2S)-butan-2-yl]-6-{1-[1-(5-chloropyridin-3-yl)propyl]-1H-pyrazol-4-yl}[1,2,4]triazolo[1,5-a]pyridine-8-carboxamide] gave an IC50 (LZK) of 16 nM and an IC50 (DLK) of 1.6 nM.
Compound `CC[C@H](C)NC(=O)c1cc(-c2cnn(C(c3cncc(Cl)c3)C(C)C)c2)cn2nc(N)nc12` (mixture of isomers) [Example I-61, 2-Amino-N-[(2S)-butan-2-yl]-6-{1-[1-(5-chloropyridin-3-yl)-2-methylpropyl]-1H-pyrazol-4-yl}[1,2,4]triazolo[1,5-a]pyridine-8-carboxamide] has an IC50 (LZK) of 3.3 nM and an IC50 (DLK) of 0.6 nM.
`CCC(c1ccc(C(F)F)nc1)n1cc(-c2cc(C(=O)N[C@@H](C)CC)c3nc(N)nn3c2)cn1` (mixture of isomers) [Example I-64, 2-Amino-N-[(2S)-butan-2-yl]-6-(1-{1-[6-(difluoromethyl)pyridin-3-yl]propyl}-1H-pyrazol-4-yl)[1,2,4]triazolo[1,5-a]pyridine-8-carboxamide] was tested, and the IC50 (LZK) was 7 nM and the IC50 (DLK) was 1.7 nM.

From US20230086702A1, “SUBSTITUTED 2-AMINO-PYRAZOLYL-[1,2,4]TRIAZOLO[1,5A]PYRIDINE DERIVATIVES AND USE THEREOF” (The Johns Hopkins University, priority 2019, published 2023)
